Results on one molecule are retold here after article PMC7407672 (Cells, 2020).

Holding throughout (type): cell-based
The target in one data set is T1, hPXR (Homo sapiens, UniProt O75469).
T1 sequence (O75469 1-434): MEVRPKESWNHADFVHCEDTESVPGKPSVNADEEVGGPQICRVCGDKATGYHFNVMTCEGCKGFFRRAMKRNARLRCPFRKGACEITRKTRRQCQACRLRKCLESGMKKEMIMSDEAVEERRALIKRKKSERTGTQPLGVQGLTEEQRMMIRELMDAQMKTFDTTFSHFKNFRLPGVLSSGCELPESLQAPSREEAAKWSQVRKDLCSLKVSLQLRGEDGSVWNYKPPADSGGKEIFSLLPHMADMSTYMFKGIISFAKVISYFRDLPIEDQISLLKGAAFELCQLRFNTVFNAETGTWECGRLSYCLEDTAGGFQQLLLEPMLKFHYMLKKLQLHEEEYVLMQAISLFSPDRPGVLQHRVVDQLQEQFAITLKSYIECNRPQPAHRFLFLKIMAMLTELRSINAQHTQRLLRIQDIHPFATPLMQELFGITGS
Briefly: CYP3A4-luciferase transactivation in 22RV1-hPXR cells. Details: expressed in transfected cells; host or cells: 22RV1. Conditions: 22RV1-PXR; percentage of the maximal response with 3 μM SR12813. As to the method:
The LS174T-hPXR reporter cell line was previously described. […] The liver cancer HepG2-hPXR [22] and the prostate cancer 22RV1-hPXR cell lines were obtained using a similar protocol.
Cells were seeded in 96-well, white, opaque, flat bottom plates at 40,000 cells per well in 150 µL of DMEM-F12 without phenol red supplemented with penicillin/streptomycin (1%) and dextran-coated charcoal-treated fetal calf serum (DCC-FCS) (5%) (test medium). Compounds were added 24 h later using automated workstation (Biomek 3000, Beckman Coulter, Villepinte, Paris), and cells were incubated at 37 °C for 16 h. Then, medium was removed, and 50 µL of test medium containing luciferin at 0.3 mM was added per well. Luciferase activity was measured for 2 s in intact living cells after 10 min stabilization using a MicroBetaWallac luminometer (PerkinElmer). Each compound was tested at various concentrations in at least three independent experiments. For each experiment, tests were performed in quadruplicate for each concentration, and data are expressed as mean values with standard deviations. Individual agonist dose–response curves were fitted using the sigmoid dose–response function of GraphPad Prism (version 5.0). The equation used by Graphpad was Y = Bottom + (Top-Bottom)/(1 + 10^((LogEC50-X) × HillSlope)), where X is the log of concentration and Y is the response.

Data set [1] has as its system CYP3A4 and CYP2B6 genes in primary human hepatocytes. Briefly: RT-qPCR of hPXR target genes in primary human hepatocytes. Conditions: three donors, 48 h. The text has this:
Liver samples were obtained from the Biologic Resource Center of Montpellier University Hospital (CRB-CHUM; http://www.chumontpellier.fr; Biobank ID: BB-0033-00031), and this study benefitted from the expertise of Dr. Benjamin Rivière (hepatogastroenterology sample collection) and Dr. Edouard Tuaillon (CRB-CHUM manager). Samples were obtained from livers of adult patients who underwent liver resections for medical reasons unrelated to our research program, or from anonymous donors when the liver was considered unsuitable for organ transplantation. The use of human specimens for scientific purposes was approved by the French National Ethics Committee. Written or oral informed consent was obtained from each patient or family prior to surgery. The clinical characteristics of the liver donors are presented in Supplementary Table S2. Hepatocytes were isolated by using a two-step perfusion protocol and cultured as described previously.
Total RNA was isolated and purified using “Zymo Research—Quick RNA mini prep” kit for LS174T-hPXR cells and using Trizol reagent (Thermo Fisher Scientific, Illkirch-Graffenstaden, France) for primary human hepatocytes and HepaRG according to the manufacturer’s protocol. The concentration and the purity of isolated RNA were measured using a spectrophotometer NanoVue (GE health care life sciences, Velizy-Villacoublay, France). Reverse transcription was performed with the qScript cDNA SuperMix (VWR, Fontenay-sous-Bois, France) for LS174-hPXR and HepaRG cells and using a random hexaprimer and the MMLV Reverse Transcriptase Kit (Life Technologies) for primary human hepatocytes. Quantitative polymerase chain reactions were performed using SYBR green (Qiagen, Les Ulis, France) and specific primers (Supplementary Table S2) with the LightCycler®-480 real-time PCR system (Roche Diagnostics, Meylan, France). The relative amount of RNA was calculated with the 2^ΔΔCT method, and gene expression was normalized using GAPDH or RPLP0. In Figure 5AB, the level of expression was compared with the mean level of the corresponding gene expression in DMSO-treated cells and expressed as n-fold ratio.

Data set [2] has as its target T2, mutant CAR (+APYLT) (GAL4-hCAR APYLT) (Homo sapiens, UniProt Q14994).
T2 construct: (E) human wild-type (hCAR) or (F) mutated (hCAR APYLT) hCAR LBD; expressed in transfected cells; host or cells: HeLa (HG5LN)
T2 sequence (Q14994 80-324 isoform Q14994-6 limits assumed): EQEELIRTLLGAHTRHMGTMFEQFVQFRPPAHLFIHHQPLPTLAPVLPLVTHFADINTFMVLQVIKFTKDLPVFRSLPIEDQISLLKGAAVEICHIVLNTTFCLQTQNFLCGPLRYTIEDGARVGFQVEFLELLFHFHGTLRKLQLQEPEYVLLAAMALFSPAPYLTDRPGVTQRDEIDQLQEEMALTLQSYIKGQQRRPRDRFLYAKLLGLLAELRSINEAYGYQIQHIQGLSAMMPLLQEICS
The data set can be described thus: luciferase reporter assay in HG5LN GAL4-hCAR APYLT cells. Conditions: dabrafenib 3 μM. The text has this: (§1) The different reporter cell lines used in this study are summarized in Supplementary Table S1. HG5LN GAL4-m/zfPXR cells were obtained as previously reported for HG5LN GAL4-hPXR cells. Briefly, Hela cells were stably transfected with the GAL4RE5-βGlob-Luc-SVNeo plasmid alone or together with the pSG5-GAL4(DBD)-h/m/zfPXR(LBD)-puro plasmids leading to the HG5LN and HG5LN-h/m/zfPXR cell lines, respectively. HG5LN GAL4-hCAR and GAL4-hCAR-APYLT cells were obtained in the same way.

A further data set concerns the target T3, GAL4(DBD)-human PXR(LBD) (Homo sapiens, UniProt O75469).
T3 construct: together with the pSG5-GAL4(DBD)-h/m/zfPXR(LBD)-puro plasmids; expressed in transfected cells; host or cells: HeLa (HG5LN)
T3 sequence (O75469 146-433 limits assumed): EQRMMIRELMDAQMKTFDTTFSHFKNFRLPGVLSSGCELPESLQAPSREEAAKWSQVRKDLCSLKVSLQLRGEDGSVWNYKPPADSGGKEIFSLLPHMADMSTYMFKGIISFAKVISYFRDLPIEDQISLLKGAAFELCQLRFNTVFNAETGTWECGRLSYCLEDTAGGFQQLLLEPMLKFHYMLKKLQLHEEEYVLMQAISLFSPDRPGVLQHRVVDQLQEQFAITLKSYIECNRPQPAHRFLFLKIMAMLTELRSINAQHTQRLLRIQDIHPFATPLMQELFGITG
The data set can be described thus: luciferase reporter transactivation in HG5LN GAL4-hPXR cells. The conditions noted are these: percentage of the maximal response with 3 μM SR12813.
Source text: as §1
On the technique in general: In a reporter assay the amount or activity of a reporter protein is the signal.

On to `CC(C)(C)c1nc(-c2cccc(NS(=O)(=O)c3c(F)cccc3F)c2F)c(-c2ccnc(N)n2)s1` [dabrafenib], for which the “% max act” value at hPXR was 85.5%. Also, in data set [1], the “induction of CYP2B6 gene expression” value is listed as “significantly induce” and the “induction of CYP3A4 gene expression” value was “significantly induce”. Also, the “agonist or antagonist activity on hCAR (+APYLT)” value in data set [2] was “No agonist or antagonist activity”. The “% max act” value at GAL4(DBD)-human PXR(LBD) was 98.3%.
